Test results published in patent US11938121B2, “Treatment of infections and biofilm formation using a cellulose synthase inhibitor” (Purdue Research Foundation, priority 2020, dated 2024).
Read-outs that look alike come from different tables or passages of the source.

Experiments:
[1] = system: AtCESA6 (cesa6 alleles es20r1-es20r15); experiment: Root growth of EMS-induced cesa6 mutants es20r1-es20r15 on ES20 analogs; assay type: in vivo, Arabidopsis thaliana; details: compared with wild-type/control plants
From the text: A subset of active ES20 analogs likely target the catalytic domain of AtCESA6. […] Since ES20 and the nine active ES20 analogs share highly similar structures, we reasoned whether these active analogs target AtCESA6 as well. We therefore examined the growth of es20r1-es20r15 plants in the presence of nine active ES20 analogs compared to wild-type plants.
(§1) To test the inhibitory effects of different chemicals on plant growth, wild-type Arabidopsis Col-0 plants were used. The seeds of plants used for growth assays or live cell imaging were sequentially sterilized with 50% bleach and 75% ethanol. […] To quantify the inhibitory effects of different ES20 active analogs on the root growth of Arabidopsis wildtype, EMS mutants, and transgenic plants expressing mutated AtCESA6 in prc1-1 background, sterilized Col-0, mutants, and transgenic plants seeds were sown on gridded Petri plates containing ½-strength MS medium supplemented with different concentrations of ES20 analogs. […] The plates were scanned using an Epson Perfection V550 scanner after 7 days of growth, and the root lengths of plants were quantified using ImageJ software. […] The Petri dishes were scanned, and hypocotyl length was measured using ImageJ. Transgenic plants expressing fluorescence-tagged PIN2, PIP2a, HDEL, VHA-a1, and GOT1p were as reported previously (Xu and Scheres, Plant Cell, 2005, 17, 525-536).

[2] = system: AtCESA6 carrying missense mutations in prc1-1; experiment: Root growth of transgenic plants expressing mutated AtCESA6 in prc1-1; assay type: in vivo, Arabidopsis thaliana; details: D562N, D564N, D785N, Q823E, R826A, W827A in prc1-1
From the text: We then examined whether transgenic plants expressing AtCESA6 with predicted missense mutations at the catalytic site in prc1-1 background would have altered sensitivity to active ES20 analogs. […] However, the responses of two transgenic lines expressing AtCESA6 carrying missense mutations outside of the catalytic site (L365F and D395N) to nine active ES20 analogs were similar to those of wild-type plants (FIG. 2B).
as §1, with “Transgenic plants expressing fluorescence-tagged PIN2, PIP2a, HDEL, VHA-a1, and GOT1p were as reported previously (Xu and Scheres, Plant Cell, 2005, 17, 525-536).” left out

[3] = target: T1, GFP-CESA6c (central cytosolic domain of AtCESA6) (Arabidopsis thaliana, UniProt Q94JQ6); experiment: MST assay with GFP-CESA6c; assay type: binding
T1 construct: made in house; host or cells: E. coli
From the text: To obtain the central cytosolic domain of AtCESA6 for the MST assay, we inserted the GFP coding sequence into the SacI and PstI restriction enzyme sites of the pRSF-Duet-1 vector (Huang et al., 2020). The GFP coding sequence was amplified from the pUBN-GFP-DEST vector. The sequence encoding the central cytosolic domain of CESA6 (CESA6c) was amplified from Col-0 cDNA and fused with GFP at the C-terminus. CESA6c construct was used as a template for creating CESA6c^P595S construct by site-directed mutagenesis. Protein purification was performed as previously described (Huang et al., 2020).
MST assays were carried out using a Monolith NT.115 (NanoTemper) machine at the Chemical Genomics Facility at Purdue University. […] The ES20-1 was dissolved in DMSO, and the final concentration of DMSO was 5% (vol/vol). MST standard capillaries were used to load the samples into the MST instrument. Triplicate reactions were performed for each test. The MST data were processed using MO. Affinity Analysis Version 2.3 software.

[4] = target: T2, GFP-CESA6c: GFP-tagged central cytosolic domain of AtCESA6 (cellulose synthase, CESA6) with a His-SUMO tag (Arabidopsis thaliana, UniProt Q94JQ6); experiment: Microscale thermophoresis (MST) binding to purified GFP-tagged CESA6c (wild-type); details: read-out: Kd, thermophoresis binding curve, GFP-CESA6c
T2 construct: His-SUMO; made in house; host or cells: E. coli
T2 sequence (Q94JQ6 322-868 limits assumed): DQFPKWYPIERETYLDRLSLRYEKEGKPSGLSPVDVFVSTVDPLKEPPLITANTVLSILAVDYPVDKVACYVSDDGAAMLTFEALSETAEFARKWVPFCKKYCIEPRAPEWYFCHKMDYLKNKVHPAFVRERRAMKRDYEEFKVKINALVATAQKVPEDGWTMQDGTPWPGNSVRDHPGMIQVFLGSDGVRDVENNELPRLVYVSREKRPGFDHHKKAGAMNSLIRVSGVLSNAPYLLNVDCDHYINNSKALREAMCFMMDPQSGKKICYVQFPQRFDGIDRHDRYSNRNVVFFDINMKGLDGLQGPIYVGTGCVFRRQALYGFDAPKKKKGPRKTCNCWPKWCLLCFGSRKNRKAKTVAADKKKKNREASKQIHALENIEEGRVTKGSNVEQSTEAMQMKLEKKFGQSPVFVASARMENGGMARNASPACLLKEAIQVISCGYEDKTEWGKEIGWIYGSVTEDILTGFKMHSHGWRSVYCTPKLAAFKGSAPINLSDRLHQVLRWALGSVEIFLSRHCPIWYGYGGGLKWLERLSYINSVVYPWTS
From the text: FIGS. 3A-3Q. […] FIG. 3A to FIG. 3G. […] FIG. 3A. Representative 5-day-old dark-grown Arabidopsis Col-0 seedlings grown on growth medium supplemented with different concentrations of ES20 or ES20-1. Scale bar: 1 cm. FIG. 3B. Quantification of hypocotyl length of 5-day-old dark-grown Arabidopsis Col-0 seedlings described in FIG. 3A. Data represent mean±SD (n=12 seedlings). FIG. 3C. Quantification of crystalline cellulose content in the hypocotyl cell walls of 7-day-old dark-grown Col-0 seedlings grown on growth medium supplemented with DMSO (0.1%), 1 μM ES20, or 1 μM ES20-1. Data represent mean±SD (n=3 biological replicates). FIG. 3D and FIG. 3E. […] FIG. 3D. Representative image of 6-day-old rice seedlings grown in sterile water supplemented with DMSO (0.1%), 20 μM ES20, or 20 μM ES20-1. Scale bar: 1 cm. FIG. 3E. Quantification of root length of rice seedlings as described in FIG. 3D. Data represent mean±SD (n=10 seedlings). FIG. 3F and FIG. 3G. […] FIG. 3F. Representative image of 6-day-old maize seedlings grown in sterile water supplemented with DMSO (0.1%), 20 μM ES20, or 20 μM ES20-1. Scale bar: 1 cm. FIG. 3G. Quantification of root length of maize seedlings as described in FIG. 3F. Data represent mean±SD (n=12 seedlings). […] FIG. 3H. Representative immunoblot from a DARTS assay of ES20-1 and YFP-AtCESA6. FIG. 3I. Quantitative analysis of the band intensity of YFP-AtCESA6 and SEC12 in ES20-1-treated samples divided by that of DMSO-treated samples in the DARTS assay described in FIG. 3H. Data represent mean±SD (n=6 biological replicates). FIGS. 3J-3N. […] FIG. 3J. Coomassie blue staining of purified GFP-tagged CESA6c with a His-SUMO tag (lane 2). FIGS. 3K, 3L, 3M, 3N. […] FIG. 3O. Coomassie blue staining of purified GFP-tagged CESA6c^P595S with a His-SUMO tag (lane 2). FIG. 3P and FIG. 3Q. […] Statistically significant differences in FIG. 3B were determined using one-way ANOVA followed by Tukey's multiple comparisons test. Lower-case letters represent ANOVA results for plants grown on medium with 0.1% DMSO, different concentrations of ES20 or ES20-1. […]

[5] = target: T3, GFP-CESA6c^P595S: GFP-tagged central cytoplasmic domain of AtCESA6 (cellulose synthase, CESA6) carrying missense mutation P595S, with a His-SUMO tag (Arabidopsis thaliana, UniProt Q94JQ6, P595S); experiment: Microscale thermophoresis (MST) binding to purified GFP-tagged CESA6c^P595S (missense mutant)
T3 construct: We purified AtCESA6 central cytoplasmic domain carrying missense mutation P595S (CESA6c^P595S); His-SUMO; made in house; host or cells: E. coli
From the text: FIGS. 3A-3Q. […] FIG. 3A to FIG. 3G. […] FIG. 3A. Representative 5-day-old dark-grown Arabidopsis Col-0 seedlings grown on growth medium supplemented with different concentrations of ES20 or ES20-1. Scale bar: 1 cm. FIG. 3B. Quantification of hypocotyl length of 5-day-old dark-grown Arabidopsis Col-0 seedlings described in FIG. 3A. Data represent mean±SD (n=12 seedlings). FIG. 3C. Quantification of crystalline cellulose content in the hypocotyl cell walls of 7-day-old dark-grown Col-0 seedlings grown on growth medium supplemented with DMSO (0.1%), 1 μM ES20, or 1 μM ES20-1. Data represent mean±SD (n=3 biological replicates). FIG. 3D and FIG. 3E. […] FIG. 3D. Representative image of 6-day-old rice seedlings grown in sterile water supplemented with DMSO (0.1%), 20 μM ES20, or 20 μM ES20-1. Scale bar: 1 cm. FIG. 3E. Quantification of root length of rice seedlings as described in FIG. 3D. Data represent mean±SD (n=10 seedlings). FIG. 3F and FIG. 3G. […] FIG. 3F. […] Quantification of root length of maize seedlings as described in FIG. 3F. […] Quantitative analysis of the band intensity of YFP-AtCESA6 and SEC12 in ES20-1-treated samples divided by that of DMSO-treated samples in the DARTS assay described in FIG. 3H. […] Statistically significant differences in FIG. 3B were determined using one-way ANOVA followed by Tukey's multiple comparisons test. […]

Structure (SMILES): Cc1cccnc1NC(=S)NC(=O)c1cccc([N+](=O)[O-])c1C [ES20-9]
- sensitivity of es20r1-es20r15 mutants in growth [1]: 14 out of 15 mutants except es20r13 show reduced sensitivity
- sensitivity of transgenic lines with AtCESA6 catalytic site mutations [2]: Reduced sensitivity
- interaction with CESA6c ([3]; 100 nM GFP-CESA6c): also interacts
- relative binding affinity to CESA6c ([3]; MST): slightly lower than ES20-1
- Kd ([4]; FIG. 3N, GFP-CESA6c purified from E. coli, pH 7.5, 10 mM MgCl2, 0.05% Tween 20, triplicate): 5.1 ± 4.8 µM

Structure (SMILES): COc1ccc(C(=O)NC(=S)NNC(=O)c2ccccc2C)cc1 [ES20]
- Kd [5]: 24.5 ± 26.9 µM
- Kd ([4]; FIGS. 3K-3M, 100 nM GFP-CESA6c purified from E. coli, pH 7.5, 10 mM MgCl2, 0.05% Tween 20, 5% DMSO, triplicate): 9.7 ± 3.3 µM
